Reference: patent US20170101432A1, “CRYSTALLINE 3',5'-CYCLIC DIGUANYLIC ACID” (Yamasa Corporation, priority 2014, published 2017)

Test: Stability: storage at 50° C. in a desiccator containing saturated saline, HPLC purity measured
Assay type: physicochemical
Conditions: for relative residual ratio: storage at 50° C., saturated saline desiccator
Procedure: Note that the high performance liquid chromatography method was performed under the following condition. Column: Hydrosphere C18 (product of YMC Co., Ltd.) Eluate: 0.1M TEA-P (pH 6.0) Detection method: detection by UV 260 nm The crystals of 3′,5′-cyclic diguanylic acid of the present invention and the co-crystals with cobalt and the co-crystals with magnesium of Reference Examples were stored at 50° C. in a desiccator containing saturated saline, and HPLC purity of each of them was measured on days 0, 7, 31, 84 and 167 after the start of storage. The result of measurement of HPLC purity (%) is shown in Table 5 below and relative residual ratios (%) on each day for measurement after the start of storage, taking the purity of day 0 of measurement as 100%, are shown in Table 6.

[1] = day 0, purity of day 0 taken as 100%
[2] = day 0 after the start of storage at 50° C. in a desiccator containing saturated saline
[3] = day 7, purity of day 0 taken as 100%
[4] = day 7 of storage at 50° C. in a desiccator containing saturated saline
[5] = day 31, purity of day 0 taken as 100%
[6] = day 31 of storage at 50° C. in a desiccator containing saturated saline
[7] = day 84, purity of day 0 taken as 100%
[8] = day 84 of storage at 50° C. in a desiccator containing saturated saline
[9] = day 167, purity of day 0 taken as 100%
[10] = day 167 of storage at 50° C. in a desiccator containing saturated saline

relative residual ratio [1] [%] | HPLC purity [2] [%] | relative residual ratio [3] [%] | HPLC purity [4] [%] | relative residual ratio [5] [%] | HPLC purity [6] [%] | relative residual ratio [7] [%] | HPLC purity [8] [%] | relative residual ratio [9] [%] | HPLC purity [10] [%] | decrease rate of HPLC purity (after storing at 50° C. for 167 days in a desiccator containing saturated saline) | Compound
100 | 99.8 | 100 | 99.7 | 99.8 | 99.6 | 100.0 | 99.8 | 99.5 | 99.3 | – | Nc1nc2c(ncn2C2OC3COP(=O)(O)OC4C(COP(=O)(O)OC3C2O)OC(n2cnc3c(=O)[nH]c(N)nc32)C4O)c(=O)[nH]1 (stereo not shown) [Mg, 3′,5′-cyclic diguanylic acid]
100 | 99.0 | 100.1 | 99.1 | 99.6 | 98.6 | 99.9 | 98.9 | 100.0 | 98.9 | less than 1% | Nc1nc2c(ncn2[C@@H]2O[C@@H]3COP(=O)(O)OC4C(O)[C@H](n5cnc6c(=O)[nH]c(N)nc65)O[C@@H]4COP(=O)(O)OC3C2O)c(=O)[nH]1 (stereo partly shown) [Present Invention, 3′,5′-cyclic diguanylic acid]
100 | 99.9 | 100 | 99.9 | 99.8 | 99.7 | 99.8 | 99.7 | 99.6 | 99.4 | – | Nc1nc2c(ncn2C2OC3COP(=O)(O)OC4C(COP(=O)(O)OC3C2O)OC(n2cnc3c(=O)[nH]c(N)nc32)C4O)c(=O)[nH]1 (stereo not shown) [Co, 3′,5′-cyclic diguanylic acid]
